This assay has as its target IRAK4 (Homo sapiens (Human), UniProt Q9NWZ3). Kind of assay: In vitro IRAK4 phosphorylation activity assay. As to conditions: [γ-33P]-ATP, myelin basic protein substrate, 40 minutes at room temperature; categories. The format is biochemical. A digest of the protocol:
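Radiometric filter-binding assay, no compound–kinase preincubation; 8 mM MOPS pH 7.0, 0.2 mM EDTA, 10 mM Mg acetate, 0.33 mg/mL myelin basic protein substrate, [γ-33P]-ATP. Reaction 40 min at room temperature, stopped with phosphoric acid, scintillation counting; IC50 reported in categories.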

IRAK4, sequence (Q9NWZ3 whole entry): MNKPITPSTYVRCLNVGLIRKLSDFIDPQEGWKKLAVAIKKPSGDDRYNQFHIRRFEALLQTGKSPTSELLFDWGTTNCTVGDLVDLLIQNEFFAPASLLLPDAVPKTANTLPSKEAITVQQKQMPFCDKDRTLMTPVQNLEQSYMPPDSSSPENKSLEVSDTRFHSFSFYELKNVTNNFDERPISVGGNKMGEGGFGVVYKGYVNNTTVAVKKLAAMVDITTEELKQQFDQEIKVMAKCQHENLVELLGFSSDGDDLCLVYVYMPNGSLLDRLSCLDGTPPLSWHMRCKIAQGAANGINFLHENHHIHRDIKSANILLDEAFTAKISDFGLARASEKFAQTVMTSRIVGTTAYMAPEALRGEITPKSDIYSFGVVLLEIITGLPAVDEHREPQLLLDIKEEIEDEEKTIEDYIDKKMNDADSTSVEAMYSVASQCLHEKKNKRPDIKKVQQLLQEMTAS

By IC50 is commonly meant the point on the concentration scale where inhibition reaches its midpoint. Low values mean greater potency in that assay, high ones weaker potency in that assay. Consider `O=C(Nc1nc(CCC[N+]2([O-])CCOCC2)cn1-c1ccccc1)c1cccc(-c2cn[nH]c2)c1` [Example 126, 4-(3-(2-(3-(1H-pyrazol-4-yl)benzamido)-1-phenyl-1H-imidazol-4-yl)propyl)morpholine 4-oxide], for which the IC50 was < 0.05 µM.

For `O=C(CCc1cn(-c2ccccc2)c(NC(=O)c2cccc(-c3cn[nH]c3)c2)n1)Nc1ccccc1` [Example 6, N-(4-(3-oxo-3-(phenylamino)propyl)-1-phenyl-1H-imidazol-2-yl)-3-(1H-pyrazol-4-yl)benzamide], the half-inhibitory concentration (IC50) was < 0.05 µM. For `O=C(CCCc1cn(-c2ccccc2)c(NC(=O)c2cccc(-c3cn[nH]c3)c2)n1)Nc1ccccc1` [Example 52, N-(4-(4-oxo-4-(phenylamino)butyl)-1-phenyl-1H-imidazol-2-yl)-3-(1H-pyrazol-4-yl)benzamide], the 50% inhibitory concentration (IC50) was < 0.05 µM. As to `COC[C@H]1CCCN1NC(=O)CCCc1cn(-c2ccccc2)c(NC(=O)c2cccc(-c3cn[nH]c3)c2)n1` [Example 54, (R)—N-(4-(4-((2-(methoxymethyl)pyrrolidin-1-yl)amino)-4-oxobutyl)-1-phenyl-1H-imidazol-2-yl)-3-(1H-pyrazol-4-yl)benzamide], the IC50 was < 0.05 µM. On to `Cn1cc(-c2cccc(C(=O)Nc3nc(CCCC(=O)NCC4CCOC4)cn3-c3ccccc3)c2)cn1` (stereo not shown) [Example 180, 3-(1-methyl-1H-pyrazol-4-yl)-N-(4-(4-oxo-4-(((tetrahydrofuran-3-yl)methyl)amino)butyl)-1-phenyl-1H-imidazol-2-yl)benzamide], for which the IC50 was < 0.05 µM. The figure for `CNC(=O)Cc1cn(-c2ccccc2)c(NC(=O)c2cccc(-c3ccncc3)c2)n1` [Example 265, N-(4-(2-(methylamino)-2-oxoethyl)-1-phenyl-1H-imidazol-2-yl)-3-(pyridin-4-yl)benzamide] is > 0.1 µM; for `Cn1cc(-c2cccc(C(=O)Nc3nc(CCCC(=O)N4CCCC[C@@H]4C(F)(F)F)cn3-c3ccccc3)c2)cn1` [Example 176, (R)-3-(1-methyl-1H-pyrazol-4-yl)-N-(4-(4-oxo-4-(2-(trifluoromethyl)piperidin-1-yl)butyl)-1-phenyl-1H-imidazol-2-yl)benzamide] it is < 0.05 µM; for `Cn1cc(-c2cccc(C(=O)Nc3nc(CCCC(=O)N4CCC[C@@H](N)C4)cn3-c3ccccc3)c2)cn1` [Example 210, (R)—N-(4-(4-(3-aminopiperidin-1-yl)-4-oxobutyl)-1-phenyl-1H-imidazol-2-yl)-3-(1-methyl-1H-pyrazol-4-yl)benzamide] it is < 0.05 µM. Take `COC[C@H]1CCCN1NC(=O)CCCCCc1cn(-c2ccccc2)c(NC(=O)c2cccc(-c3cn[nH]c3)c2)n1` [Example 99, (R)—N-(4-(6-((2-(methoxymethyl)pyrrolidin-1-yl)amino)-6-oxohexyl)-1-phenyl-1H-imidazol-2-yl)-3-(1H-pyrazol-4-yl)benzamide]: the concentration for half-maximal inhibition (IC50) was < 0.05 µM. Regarding `Cn1cc(-c2cccc(C(=O)Nc3nc(CCCCC(=O)NC4CCOCC4)cn3-c3ccccc3)c2)cn1` [Example 197, 3-(1-methyl-1H-pyrazol-4-yl)-N-(4-(5-oxo-5-((tetrahydro-2H-pyran-4-yl)amino)pentyl)-1-phenyl-1H-imidazol-2-yl)benzamide], the IC50 was < 0.05 µM. With `CN1CCN(C(=O)CCCCCc2cn(-c3ccccc3)c(NC(=O)c3cccc(-c4ccc5scnc5c4)c3)n2)CC1` [Example 288, 3-(benzo[d]thiazol-5-yl)-N-(4-(6-(4-methylpiperazin-1-yl)-6-oxohexyl)-1-phenyl-1H-imidazol-2-yl)benzamide], the 50% inhibitory concentration (IC50) is > 0.1 µM. In the case of `CN1CCN(C(=O)CCCCCc2cn(-c3ccccc3)c(NC(=O)c3cccc(-c4ccc(N)nc4)c3)n2)CC1` [Example 272, 3-(6-aminopyridin-3-yl)-N-(4-(6-(4-methylpiperazin-1-yl)-6-oxohexyl)-1-phenyl-1H-imidazol-2-yl)benzamide], the 50% inhibitory concentration (IC50) was < 0.05 µM. As to `Cn1cc(-c2cccc(C(=O)Nc3nc(CCCCCCN4CCCC4)cn3-c3ccccc3)c2)cn1` [Example 222, 3-(1-methyl-1H-pyrazol-4-yl)-N-(1-phenyl-4-(6-(pyrrolidin-1-yl)hexyl)-1H-imidazol-2-yl)benzamide], the IC50 is < 0.05 µM. As for `O=C(Nc1nc(CCCCCCNC(=O)C2CC2)cn1-c1ccccc1)c1cccc(-c2ccc3[nH]ncc3c2)c1` [Example 262, N-(4-(6-(cyclopropanecarboxamido)hexyl)-1-phenyl-1H-imidazol-2-yl)-3-(1H-indazol-5-yl)benzamide], the IC50 was < 0.05 µM. As to `C[C@@H]1CCC[C@H](C)N1C(=O)CCCc1cn(-c2ccccc2)c(NC(=O)c2cccc(-c3cn[nH]c3)c2)n1` [Example 63, N-(4-(4-((2R,6S)-2,6-dimethylpiperidin-1-yl)-4-oxobutyl)-1-phenyl-1H-imidazol-2-yl)-3-(1H-pyrazol-4-yl)benzamide], the IC50 was < 0.05 µM. Turning to `O=C(Nc1nc(CCCCCC(=O)N2CCCCC2)cn1-c1ccccc1)c1cccc(-c2ccc3[nH]nnc3c2)c1` [Example 242, 3-(1H-benzo[d][1,2,3]triazol-5-yl)-N-(4-(6-oxo-6-(piperidin-1-yl)hexyl)-1-phenyl-1H-imidazol-2-yl)benzamide], the 50% inhibitory concentration (IC50) is < 0.05 µM.

Turning to `CN(C(=O)CCCc1cn(-c2ccccc2)c(NC(=O)c2cccc(-c3cnn(C)c3F)c2)n1)C1CC1` [Example 233, N-(4-(4-(cyclopropyl(methyl)amino)-4-oxobutyl)-1-phenyl-1H-imidazol-2-yl)-3-(5-fluoro-1-methyl-1H-pyrazol-4-yl)benzamide], the IC50 was 0.05 to 0.1 µM. Consider `COC[C@H]1CCCN1C(=O)CCc1cn(-c2ccccc2)c(NC(=O)c2cccc(-c3cn[nH]c3)c2)n1` [Example 20, (R)—N-(4-(3-(2-(methoxymethyl)pyrrolidin-1-yl)-3-oxopropyl)-1-phenyl-1H-imidazol-2-yl)-3-(1H-pyrazol-4-yl)benzamide], for which the IC50 was > 0.1 µM. `O=C(Nc1nc(CCCCNC(=O)C2CC2)cn1-c1ccccc1)c1cccc(-c2ccc3[nH]ncc3c2)c1` [Example 261, N-(4-(4-(cyclopropanecarboxamido)butyl)-1-phenyl-1H-imidazol-2-yl)-3-(1H-indazol-5-yl)benzamide]: the IC50 is < 0.05 µM. As for `CN1CCN(N(C)C(=O)CCCc2cn(-c3ccccc3)c(NC(=O)c3cccc(-c4cnn(C)c4)c3)n2)CC1` [Example 218, N-(4-(4-(methyl(4-methylpiperazin-1-yl)amino)-4-oxobutyl)-1-phenyl-1H-imidazol-2-yl)-3-(1-methyl-1H-pyrazol-4-yl)benzamide], the half-maximal inhibitory concentration (IC50) is < 0.05 µM. Regarding `O=C(CCCc1cn(-c2ccccc2)c(NC(=O)c2cccc(-c3cn[nH]c3)c2)n1)NC1CCC1` [Example 69, N-(4-(4-(cyclobutylamino)-4-oxobutyl)-1-phenyl-1H-imidazol-2-yl)-3-(1H-pyrazol-4-yl)benzamide], the half-maximal inhibitory concentration (IC50) was < 0.05 µM.

Consider `O=C(Nc1nc(CCC(=O)N2CCCC2)cn1-c1ccccc1)c1cccc(-c2cn[nH]c2)c1` [Example 28, N-(4-(3-oxo-3-(pyrrolidin-1-yl)propyl)-1-phenyl-1H-imidazol-2-yl)-3-(1H-pyrazol-4-yl)benzamide], for which the IC50 is < 0.05 µM.

Regarding `CN(C)CCCNC(=O)CCCc1cn(-c2ccccc2)c(NC(=O)c2cccc(-c3cnn(C)c3)c2)n1` [Example 163, N-(4-(4-((3-(dimethylamino)propyl)amino)-4-oxobutyl)-1-phenyl-1H-imidazol-2-yl)-3-(1-methyl-1H-pyrazol-4-yl)benzamide], the IC50 lay in the range of 0.05 to 0.1 µM. Regarding `O=C(CCCc1cn(-c2ccccc2)c(NC(=O)c2cccc(-c3cn[nH]c3)c2)n1)Nc1ccc(F)cc1F` [Example 66, N-(4-(4-((2,4-difluorophenyl)amino)-4-oxobutyl)-1-phenyl-1H-imidazol-2-yl)-3-(1H-pyrazol-4-yl)benzamide], the IC50 was < 0.05 µM. On to `Cn1cc(-c2cccc(C(=O)Nc3nc(CCCC(=O)NCC(C)(C)O)cn3-c3ccccc3)c2)cn1` [Example 170, N-(4-(4-((2-hydroxy-2-methylpropyl)amino)-4-oxobutyl)-1-phenyl-1H-imidazol-2-yl)-3-(1-methyl-1H-pyrazol-4-yl)benzamide], for which the IC50 was < 0.05 µM. Turning to `Nc1ccc(-c2cccc(C(=O)Nc3nc(CCCCN4CCCC4=O)cn3-c3ccccc3)c2)cn1` [Example 277, 3-(6-aminopyridin-3-yl)-N-(4-(4-(2-oxopyrrolidin-1-yl)butyl)-1-phenyl-1H-imidazol-2-yl)benzamide], the half-inhibitory concentration (IC50) is < 0.05 µM. The compound `C[C@H]1CCCCN1C(=O)CCCCc1cn(-c2ccccc2)c(NC(=O)c2cccc(-c3cn[nH]c3)c2)n1` [Example 82, (S)—N-(4-(5-(2-methylpiperidin-1-yl)-5-oxopentyl)-1-phenyl-1H-imidazol-2-yl)-3-(1H-pyrazol-4-yl)benzamide] came in with a concentration for half-maximal inhibition (IC50) of 0.05 to 0.1 µM. The value for `CC1(C)CCN(C(=O)CCc2cn(-c3ccccc3)c(NC(=O)c3cccc(-c4cn[nH]c4)c3)n2)CC1` [Example 35, N-(4-(3-(4,4-dimethylpiperidin-1-yl)-3-oxopropyl)-1-phenyl-1H-imidazol-2-yl)-3-(1H-pyrazol-4-yl)benzamide] was < 0.05 µM. As for `O=C(Nc1nc(CCCC(=O)N2CCCCC2)cn1-c1ccccc1)c1cccc(-c2cn[nH]c2)c1` [Example 59, N-(4-(4-oxo-4-(piperidin-1-yl)butyl)-1-phenyl-1H-imidazol-2-yl)-3-(1H-pyrazol-4-yl)benzamide], the IC50 is < 0.05 µM.

Turning to `Cn1cc(-c2cccc(C(=O)Nc3nc(CCCC(=O)NN4CCCCC4)cn3-c3ccccc3)c2)cn1` [Example 152, 3-(1-methyl-1H-pyrazol-4-yl)-N-(4-(4-oxo-4-(piperidin-1-ylamino)butyl)-1-phenyl-1H-imidazol-2-yl)benzamide], the IC50 fell in the range of 0.05 to 0.1 µM. The value for `CN1CCN(C(=O)CCCc2cn(-c3ccccc3)c(NC(=O)c3cccc(-c4cnn(C)c4)c3)n2)CC1` [Example 143, 3-(1-methyl-1H-pyrazol-4-yl)-N-(4-(4-(4-methylpiperazin-1-yl)-4-oxobutyl)-1-phenyl-1H-imidazol-2-yl)benzamide] was < 0.05 µM.

Values taken from patent US12534452B2, “N-(1H-imidazol-2-yl)benzamide compound and pharmaceutical composition comprising the same as active ingredient” (KAINOS MEDICINE, INC., priority 2019, dated 2026).
